Experimental data taken from article PMC8901637, “Deprogramming metabolism in pancreatic cancer with a bi-functional GPR55 inhibitor and biased β2 adrenergic agonist” (Scientific Reports, 2022).

Tests used:
[1] = biological target: T1, GPR55 (Homo sapiens, UniProt Q9Y2T6); assay: inhibition of uptake of the fluorescent GPR55 agonist T1117 in hGPR55-HEK293 cells; positive control; format: cell-based
T1 construct: 3 × HA-tagged human GPR55 stably expressed in HEK293 cells

[2] = biological target: T1, GPR55; assay: inhibition of uptake of the fluorescent GPR55 agonist T1117 in hGPR55-HEK293 cells (live-cell imaging); format: cell-based

T1 sequence (Q9Y2T6 whole entry): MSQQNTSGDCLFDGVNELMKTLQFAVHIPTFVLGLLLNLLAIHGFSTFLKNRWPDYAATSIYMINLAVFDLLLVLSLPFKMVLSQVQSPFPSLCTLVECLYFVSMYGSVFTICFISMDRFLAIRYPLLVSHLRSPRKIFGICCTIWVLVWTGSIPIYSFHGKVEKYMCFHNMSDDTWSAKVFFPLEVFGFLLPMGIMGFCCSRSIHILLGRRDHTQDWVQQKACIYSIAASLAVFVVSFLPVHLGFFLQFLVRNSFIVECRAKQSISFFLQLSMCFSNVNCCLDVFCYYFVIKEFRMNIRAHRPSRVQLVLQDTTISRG

For `COc1ccc(C[C@@H](C)NC[C@H](O)c2cc(O)cc(O)c2)c2ccccc12` [(R,R′)-MNF], the “% reduction in T1117 incorporation” value [1] was ~ 70 % reduction in T1117 incorporation.
`COc1ccc(C[C@H](C)NC[C@H](O)c2cc(O)cc(O)c2)c2ccccc12` [(R,S′)-MNF, (R,S′)-4′-methoxy-1-naphthylfenoterol] was tested, and the IC50 [2] was 1.3 µM.
